Like-named read-outs stand apart in the source and are kept apart here.
What was measured:
[1] = test system: Stagonospora nodorum (Leptosphaeria nodorum—LEPTNO); assay: In vitro fungal growth inhibition, Stagonospora nodorum (LEPTNO); assay type: cell-based; conditions: Leptosphaeria; 25 ppm in growth medium; read-out: LEPTNO in vitro Growth Inhibition
Ustilago maydis (USTIMA) = assay: microbe, parasite or virus in culture; assay type: cell-based; conditions: Mycosarcoma maydis, read-out: USTIMA in vitro Growth Inhibition
[2] = test system: Mycosphaerella graminicola (Septoria tritici—SEPTTR); assay: In vitro fungal growth inhibition, Mycosphaerella graminicola (SEPTTR); assay type: cell-based; conditions: Zymoseptoria tritici; 25 ppm in growth medium; read-out: SEPTTR in vitro Growth Inhibition
Septoria tritici—SEPTTR = assay: Leaf Blotch of Wheat, in vivo whole plant, 24 Hour Protectant
[3] = test system: Phytophthora infestans—PHYTIN; assay: whole plant or invertebrate; assay type: in vivo; conditions: Phytophthora, in Solanum lycopersicum, 24 h, read-out: PHYTIN in vivo 1 Day Protectant
[4] = test system: Leptosphaeria nodorum—LEPTNO; assay: Glume Blotch of Wheat, in vivo whole plant, 24 Hour Protectant
[5] = test system: Rhizoctonia solani (RHIZSO); assay: microbe, parasite or virus in culture; assay type: cell-based; conditions: Rhizoctonia solani, read-out: RHIZSO in vitro Growth Inhibition
[6] = test system: Puccinia recondita—PUCCRT; assay: Brown Rust of Wheat, in vivo whole plant, 24 Hour Protectant; conditions: 100 ppm spray, wheat, 24 hour protectant, control of fungal infection vs untreated plants; for pest or weed control at 100 ppm: Puccinia, read-out: PUCCRT in vivo 1 Day Protectant
Erysiphe graminis—ERYSGT = assay: Powdery Mildew of Wheat, in vivo whole plant, 24 Hour Protectant
[7] = test system: Magnaporthe grisea (Pyricularia oryzae—PYRIOR); assay: microbe, parasite or virus in culture; assay type: cell-based; conditions: Pyricularia oryzae, read-out: PYRIOR in vitro Growth Inhibition
[8] = test system: Phytophthora infestans (PHYTIN); assay: microbe, parasite or virus in culture; assay type: cell-based; conditions: Phytophthora infestans, read-out: PHYTIN in vitro Growth Inhibition
[9] = Leptosphaeria; 100 ppm spray, 24 hour protectant, wheat; control of fungal infection vs untreated plants; read-out: LEPTNO in vivo 1 Day Protectant
[10] = Erysiphe; 100 ppm spray, 24 hour protectant, wheat; control of fungal infection vs untreated plants; read-out: ERYSGT in vivo 1 Day Protectant
[11] = 100 ppm spray, 24 hour protectant, wheat; control of fungal infection vs untreated plants

SMILES | inhibition at 25 ppm [1] | inhibition at 25 ppm (Ustilago maydis (USTIMA)) | inhibition at 25 ppm [2] | pest or weed control at 100 ppm (Septoria tritici—SEPTTR; Zymoseptoria tritici, 24 h, 100 ppm spray, wheat, 24 hour protectant; control of fungal infection vs untreated plants; read-out: SEPTTR in vivo 1 Day Protectant) | pest or weed control at 100 ppm [3] | LEPTNO in vivo 1 Day Protectant ([4]; 100 ppm spray, wheat, 24 hour protectant; control of fungal infection vs untreated plants) | inhibition at 25 ppm [5] | PUCCRT in vivo 1 Day Protectant [6] | pest or weed control at 100 ppm (Erysiphe graminis—ERYSGT; Erysiphe; 100 ppm spray, wheat, 24 hour protectant; control of fungal infection vs untreated plants; read-out: ERYSGT in vivo 1 Day Protectant) | inhibition at 25 ppm [7] | inhibition at 25 ppm [8] | pest or weed control at 100 ppm (Septoria tritici—SEPTTR; Zymoseptoria tritici, 24 h, 100 ppm spray, 24 hour protectant, wheat; control of fungal infection vs untreated plants; read-out: SEPTTR in vivo 1 Day Protectant) | pest or weed control at 100 ppm [4, 9] | pest or weed control at 100 ppm [6] | pest or weed control at 100 ppm (Erysiphe graminis—ERYSGT; [10]) | LEPTNO in vivo 1 Day Protectant [4, 11]
COC(=O)C(Cc1ccc(OCc2ccccc2)cc1)NC(=O)c1nccc(OC)c1O (single isomer, unassigned) [Compound 338] | < 80% | > 80% | < 80% | 25 to 74% | < 25% | + + | < 80% | + + | < 25% | < 80% | < 80% | – | – | – | – | –
CCCCCCCCCNC(=O)c1ncccc1O [Compound 201] | < 80% | < 80% | < 80% | – | < 25% | – | < 80% | – | – | > 80% | < 80% | < 25% | < 25% | < 25% | < 25% | –
COc1ccnc(C(=O)NC2CCC[C@H]3[C@H]4CC[C@H](C4)[C@@H]23)c1O (stereo partly shown) [Compound 291] | > 80% | < 80% | < 80% | – | < 25% | – | > 80% | – | – | < 80% | < 80% | – | 25 to 74% | < 25% | < 25% | –
COc1ccnc(C(=O)N[C@H]2CC[C@H]3C4CCC(CC4)[C@H]3C2=O)c1O [Compound 292] | > 80% | < 80% | < 80% | – | < 25% | – | < 80% | – | – | < 80% | < 80% | – | – | 25 to 74% | < 25% | + +
COc1ccnc(C(=O)N[C@H]2CC3CC2[C@H](COCc2cccc(C(F)(F)F)c2)C3)c1O (stereo partly shown) [Compound 294] | > 80% | < 80% | > 80% | – | < 25% | – | > 80% | – | – | > 80% | < 80% | – | – | < 25% | < 25% | + +
COc1ccnc(C(=O)N[C@H]2CC3CC2C[C@@H]3COCc2cccc(C(F)(F)F)c2)c1O (stereo partly shown) [Compound 296] | > 80% | < 80% | < 80% | – | < 25% | – | > 80% | – | – | > 80% | < 80% | – | 25 to 74% | < 25% | < 25% | –
COc1ccnc(C(=O)N[C@@H]2CC3CC2[C@@H](c2ccccc2)[C@@H]3C(=O)OC(C)C)c1O (stereo partly shown) [Compound 300] | > 80% | < 80% | < 80% | – | < 25% | – | > 80% | – | – | < 80% | < 80% | – | 25 to 74% | < 25% | < 25% | –
COc1ccnc(C(=O)N[C@@H]2CC3CC2[C@@H](C(=O)OCCc2ccccc2)[C@H]3C(=O)OCC(C)C)c1O (stereo partly shown) [Compound 301] | > 80% | < 80% | < 80% | – | < 25% | – | > 80% | – | – | > 80% | < 80% | – | 25 to 74% | 25 to 74% | < 25% | –

From patent US6706740B2, “Fungicidal heterocyclic aromatic amides and their compositions, methods of use and preparation” (Dow AgroSciences LLC, priority 1999, dated 2004)
